Measurements from patent US20250057808A1, “COMPOSITION COMPRISING BETA LACTAM FOR TREATING ALCOHOL DEPENDENCE AND ALCOHOL ASSOCIATED DISEASES OR CONDITIONS” (Temple University of the Commonwealth System of Higher …, priority 2023, published 2025).
“Also recorded” adds a separate entry of the source.

How the values were obtained:
[1] = Ethanol drinking paradigm, three-bottle choice (MC-100093 50 mg/kg vs ceftriaxone 200 mg/kg); format: in vivo, P rats
Method: P rats were received from Indiana University School of Medicine (Indianapolis, IN, USA), and were housed in a 21° C. on a 12/12 h light/dark cycle-maintained room where they had free access to water and food. All experimental procedures were approved by the Institutional Animal Care and Use Committee (IACUC) of The University of Toledo, in accordance with the guidelines governing the use of animals in research of the National Institutes of Health as described in the Guidefor the Care and Use of Laboratory Animals.
We used an ethanol drinking paradigm as described previously by Alhaddad, et al. (2014). Briefly, animals started the experimental drinking procedure at age of 90 days. The animals had five weeks of exposure to continuous three-bottle choice drinking, 0%, 15% and 30%, v/v ethanol in water, available concurrently. Daily measurement of ethanol intake was performed (g of ethanol intake/kg of body weight/day). We measured the baseline ethanol drinking by average the intake during the last three weeks. Three groups of P rats (n=8-9/group) exposed to the five weeks ethanol exposure. At week 6, rats in each group received daily intraperitoneal injection of either MC-100093 at dose of 50 mg/kg (Ethanol-MC group), Ceftriaxone at dose of 200 mg/kg (Ethanol-CEF group, which also serves as positive control), or equivolume of saline vehicle (Ethanol group) for five days. This paradigm results in pharmacologically relevant blood alcohol concentration (50-200 mg %). Following the criteria for the development of ethanol dependence, rats whose average ethanol intake <4 g/kg/day were excluded from the study. Beside the ethanol exposed groups, another group of P rats (n=8) exposed to only water and food throughout the exposure procedures (control group).
All statistical analyses were conducted with Graphpad Prism software, with p-values of 0.05 or less being statistically significant. We performed a two-way (mixed model) ANOVA followed by Bonferroni multiple comparison post-hoc test to analyze 24 h ethanol consumption, 24 h water consumption, and daily body weight. For the Western blot and oil red O staining analysis, we performed one-way ANOVA with Newman-Keuls as a post hoc multiple comparison test to measure differences between groups as a percentage (relative to control values).

HMGβ-1 = experiment: Western blot HMGβ-1 in subregions of mPFC and NAc; format: in vivo, Male P rats
Method: All P rats were euthanized by CO2 inhalation and decapitated with a guillotine 24 hours after the final i.p. injection was administered on Day 6 of Week 6. Brains were removed and immediately frozen on dry ice and stored at −80° C. The mPFC subregions (infralimbic cortex and prelimbic cortex) and NAc subregions (core and shell) were dissected using a cryostat machine kept at −20° C. Surgical blades were used to dissect all brain regions following visualized landmarks using the stereotaxic coordinates provided by Paxinos and colleague's rat brain stereotactic atlas. All brain regions were stored in −80° C. Western Blot analyses.
Western blot was performed to determine the expression of BDNF, TNF-α, RAGE, HMGβ-1, and β-tubulin in the subregions of mPFC and NAc as preformed in previous studies.
Brain samples were lysed with a lysing buffer containing protease inhibitors. The amount of protein in each sample was quantified using a detergent compatible protein assay (Bio-Rad, Hercules, CA, USA). Polyacrylamide gels (10%) were loaded with the lysate mixture, and proteins were separated using gel electrophoresis for 1 hour. Proteins were then transferred from the gels onto Polyvinylidene difluoride (PVDF) membranes (BioRad). After transfer, membranes were incubated for 30 minutes in a mixture of nonfat milk in 1×Tris-buffered saline with Tween-20 (TBST) at room temperature. Membranes were then incubated at 4° C. for 24 hours with primary antibodies: anti-rabbit BDNF (1:1000, Abeam, #ab108319), anti-rabbit TNF-α (1:500, Abeam, #ab9739), anti-rabbit HMGβ-1 (1:500, Abeam, #ab18256), and anti-rabbit RAGE (1:1000, Abeam, #ab37407). Anti-mouse-β-tubulin (1:1000, Cell Signaling Technology, #D71G9) was used as a loading control antibody. After incubating for 24 hours, secondary antibody such as donkey anti-rabbit (1:4000, Invitrogen, #31458) or anti-mouse (1:4000, Cell Signaling, #7076S) was added to the membrane for 1 hour at room temperature. The membranes were then washed with 1×TBST three times for 5 minutes each and then dried. Membranes were then incubated in chemiluminescent reagents (Super Signal West Pico, Pierce Inc.) for 2 minutes. Blot images were developed using ChemiDoc. Imaging System and ImageJ software version 1.53a were used to quantify and analyze the expression of BDNF, TNF-α, RAGE, HMGβ-1, and β-tubulin.
The data for the water/saline control group were expressed as 100% based on the values corresponding to the ethanol/saline and ethanol/MC-100093 groups for each set of blotting. Thus, the expression of selected proteins for each group (ethanol/saline group or ethanol/MC-100093 group) was calculated relative to the water/saline control group being set to 100%.
Statistical analyses were performed using GraphPad Prism Version 10. Two-way repeated measures ANOVA followed by Bonferroni post-hoc tests were used to compare water and ethanol intake, and body weight, amongst water group, ethanol/saline group and ethanol/MC-100093 group. A one-way ANOVA test was performed to compare the expression of the studied proteins in selected brain regions in water/saline, ethanol/saline and ethanol/MC-100093 groups. Statistical significance was determined by a p-value of or less than 0.05.

[2] = 100 mg/kg i.p., compared to ethanol/saline group

In the case of `C[C@@H](O)[C@H]1C(=O)N[C@@H]1[C@@H](C)C(=O)N1CCN(C)CC1` [MC-100093], the “Body weight (grams)” value ([1]; MC-100093 50 mg/kg i.p. or ceftriaxone 200 mg/kg i.p. 5 days) is reported as “Neither MC-100093 (50 mg/kg, i.p.) nor Ceftriaxone (200 mg/kg, i.p.) treatment has significant effect; also recorded: no significant effects”, the “Water intake (mL/day)” value ([1]; MC-100093 50 mg/kg i.p. or ceftriaxone 200 mg/kg i.p. 5 days, vs Ethanol-Saline group (MC-100093: at day 5 only)) is reported as “significant increase in water consumption” and the “Ethanol consumption (g/kg of average body weight/24 hr)” value ([1]; P rats after 5 wk ethanol, MC-100093 50 mg/kg i.p. or ceftriaxone 200 mg/kg i.p. daily 5 days, vs Ethanol-Saline group) is reported as “significant decrease in ethanol consumption from day 1 through day 5; also recorded: significantly reduced ethanol consumption from day 2 through day 5; also recorded: attenuated ethanol drinking behavior; also recorded: attenuated moderately ethanol intake as compared to ceftriaxone”. For the same compound, the “HMGβ-1 expression in the NAc shell” value (HMGβ-1; 100 mg/kg i.p., compared to ethanol group) was “decreased the expression of HMGβ-1”, the “HMGβ-1 expression in the IL” value (HMGβ-1; [2]) was “decreased HMGβ-1 expression” and the “HMGβ-1 expression in the NAc core” value (HMGβ-1; [2]) was “decreased the expression of HMGβ-1”. For the same compound, the “HMGβ-1 expression in the PL” value (HMGβ-1; [2]) was “decreased the expression of HMGβ-1” and the “HMGβ-1 expression in IL, PL, NAc core and NAc shell (summary)” value (HMGβ-1; post-treatment with MC-100093 100 mg/kg i.p., 100 mg/kg) was “normalized HMGβ-1 expression in all these brain regions; also recorded: attenuated ethanol-induced upregulation of pro-inflammatory cytokines such as TNF-a and HMGB1”.
